Test results from PubChem BioAssay (NCI).
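In this assay, cells in 96-well plates receive the compound at five concentrations for 48 hours. Endpoints are linearly interpolated between the surrounding concentrations. GI50: concentration for 50% inhibition of growth. At the TGI there is no net growth.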

Legend:
Experiment in all cases: growth of human tumour cells (NCI), 48 h
[1] = tested on: DU-145 prostate
[2] = tested on: HCT-15 colon
[3] = tested on: HL-60(TB) leukemia
[4] = tested on: LOX IMVI melanoma
[5] = tested on: M14 melanoma
[6] = tested on: MCF7 breast
[7] = tested on: MOLT-4 leukemia
[8] = tested on: SF-295 CNS
[9] = tested on: SW-620 colon
[10] = tested on: U251 CNS

Structure (SMILES)	GI50 [1] [nM]	TGI [1] [µM]	GI50 [2] [nM]	TGI [2] [µM]	GI50 [3] [nM]	TGI [3] [µM]	GI50 [4] [nM]	TGI [4] [µM]	GI50 [5] [nM]	TGI [5] [µM]	GI50 [6] [nM]	TGI [6] [µM]	GI50 [7] [nM]	TGI [7] [µM]	GI50 [8] [nM]	TGI [8] [µM]	GI50 [9] [nM]	TGI [9] [µM]	GI50 [10] [nM]	TGI [10] [µM]
Cc1cc(O)c(C2=NN(c3ccc(S(N)(=O)=O)cc3)C(c3ccccc3O)C2)cc1Cl (centres undefined)	2410	4.95	2390	6.25	2490	6.14	1630	3.03	1750	3.39	2250	6.12	3110	12.2	1680	3.5	1700	3.39	2140	5.16
C=CC(=O)NCCOc1cccc(Nc2cc(NCCCNC(=O)C3CCC3)c(Br)cn2)c1	1210	> 25	1380	23.3	989	> 25	776	5.4	1790	7.86	781	10.3	1370	> 25	1340	23.4	904	6.53	851	18.7
CCN1/C(=C/C=C/C=C/c2sc3ccccc3[n+]2CC)Sc2ccccc21	394	1.73	1220	4.7	143	0.656	296	1.6	416	1.49	290	1.3	234	1.02	153	0.508	379	1.84	234	1.54
CSC1=Nc2c(c(C)c(-c3ccccc3)n2CCCCl)C2=NC(=O)CN12	11500	26.7	4110	21.4	3410	> 100	4130	17.6	3320	15.2	3420	16.5	3930	> 100	4110	26.8	4790	53.5	3920	16.4
CCc1nc(-n2c(CC)nc3ccccc3c2=O)nc(N)c1-c1ccc(Cl)cc1	> 76500	> 100	8910	> 100	> 100000	> 100	6910	> 100	52600	> 100	> 50900	> 100	73300	> 100	12600	> 100	5420	> 100	> 100000	> 100
COc1ccc2c(c1)C(=O)c1c-2c(OCCN(C)C)nc2cc(OC)ccc12	1640	8.03	475	2.39	1980	4.26	751	2.07	1510	3.05	348	1.6	320	1.2	2220	11.5	446	1.73	1200	2.93
CN(C)c1ccc(/C=C/c2ccnc3ccc4ccccc4c23)cc1	–	> 100	–	> 100	–	> 100	–	> 100	–	> 100	–	> 100	–	> 100	–	–	–	> 100	–	> 100
